One data set relates to B16 (malignant melanoma). Put plainly: In vitro proliferation assay, B16. Type of data set: cell-based, murine. The procedure:
(§1) All cell lines were grown and propagated in RPMI medium at 37° C. in 5% CO2. Cultured cells were trypsinized and plated in triplicate at 10,000 cells/well in Falcon 24 well tissue culture plates. […] When control wells neared confluence, cell number was determined for each well as an average of two readings on a ZM Coulter Counter Results are expressed as the average cell number for each drug treatment group divided by the average cell number for the drug free control group (designated as % OF CONTROL) vs. the concentration of drug or analog.

For data set [1], the system named is RENCA (renal cell carcinoma). As to the kind of experiment: In vitro proliferation assay, RENCA. The format is cell-based, murine. The procedure: as §1
The test system of data set [2] is EMT6 (breast cell carcinoma). Put plainly: In vitro proliferation assay, EMT6. Type of data set: cell-based, murine. Here is the method: as §1
For the next data set, the system named is CT26 (colon carcinoma). Put plainly: In vitro proliferation assay, CT26. The format is cell-based, murine. The settings on record: at 1000 nM against CT26 (p<0.01, data not shown). The procedure:
as §1

The subject of a further data set is B16 melanoma cells. As to the kind of experiment: Exposure time dependence study, B16. As to conditions: 10 μM; exposure 1, 2, 10, 24, 96 hours; counted at 96 hours. Type of data set: cell-based, murine. The procedure:
In a series of exposure time dependence studies, B16 melanoma cells were trypsinized, suspended, and plated as before. […] Then at 1, 2, 10, 24, and 96 hours, the drug containing media was removed and replaced with fresh media containing only solvent. […] At the 96 hour time point, all groups were trypsinized and cell number was determined as before.

A short description of data set [3]: Calcemic activity, daily intraperitoneal injections in mice. The format is in vivo, C57/B16 mice. As to conditions: for weight loss: 7 days; for blood ionized calcium: day 7. Here is the method:
Twenty-seven C57/B16 mice (n=3 per group), received daily intraperitoneal injections solution containing one of the three drugs at on of the following doses: […] (corresponding to 0.02, 0.2, or 2 mg/day respectively). Nine animals received daily intraperitoneal injections of solvent only to serve as control. Animal weights were monitored daily at the time of injection. On day 7, all animals were sacrificed and blood was collected via cardiac puncture and quantitatively analyzed for ionized calcium content at the Critical Care Lab at Johns Hopkins Hospital.

Data set [4] can be described thus: Hypercalcemic toxicity of wafers, intraflank vs intracranial. Type of data set: in vivo,  mice. The settings on record: 5 mg pCPP:SA wafer loaded 0.1%; for weight loss: 7 days; for blood ionized calcium levels: day 7. The source says:
Animal weights were monitored daily and blood was collected for quantitative ionized calcium analysis via cardiac puncture on day 7 post-implantation.

For data set [5] the following is noted: cited from earlier work.

Where two headings read alike, the source gives them in different places.

In the case of `C=C1/C(=C\C=C2/CCCC3(C)[C@@H]([C@H](C)CCCC(C)(C)O)CC[C@@H]23)C[C@@H](O)CC1O` (some centres unmarked) [1,25 D3, 1,25-Dihydroxyvitamin D3], the EC50 (commonly the concentration that produces a half-maximal response) in the data set with B16 (malignant melanoma) (Mus musculus) stood at 15 nM; in data set [1] (Mus musculus, Renca), 153 nM; in data set [2] (Mus musculus, EMT6), 160 nM. The antiproliferative activity entry (with B16 (malignant melanoma) (at 10 nM against B16 (p<0.03)); in data set [1] (at 10 nM against RENCA (p<0.03)); in data set [2] (at 100 nM against EMT6 (p<0.01)); in the data set on CT26 (colon carcinoma)) was “significant antiproliferative activity” throughout. The “exposure time dependence of antiproliferative activity” value in the data set with B16 melanoma cells is reported as “exposure time dependent”. Further, the weight loss result in data set [3] (1 mg/kg/day i.p.) is reported as “substantial weight loss”; in data set [3] (10 mg/kg/day i.p.), “substantial weight loss”; in data set [4] (intracranial), “substantial weight loss”; in data set [4] (intraflank), “substantial weight loss”; in data set [5] (120 ng/day i.c.v.), “weight loss was observed”. Besides, the blood ionized calcium result in data set [3] (1 mg/kg/day i.p.) and in data set [3] (10 mg/kg/day i.p.) was “dramatic rises in blood ionized calcium levels” each time. Moreover, the “condition of the animals” value is on record as “severely compromised” in data set [3] (100 mg/kg/day i.p.) and “severely compromised” in data set [5] (240 ng/day i.c.v., by day 6). The “blood ionized calcium levels” value in data set [4] (intracranial) and in data set [4] (intraflank) was “dramatic rises in blood ionized calcium levels” throughout. The serum calcium entry in data set [5] (60 ng/day i.c.v., after 6 days) is given as “rise in serum calcium”.

(Values after patent US20080260834A1, “VITAMIN D3 ANALOG LOADED POLYMER FORMULATIONS FOR CANCER AND NEURODEGENERATIVE DISORDERS” (priority 2002, published 2008).)
